Experimental data published in patent publication US20100150894A1, “COMPOSITION FOR PREVENTION OF CANCER” (Kaneka Corporation, priority 2005, published 2010).

Test system: azoxymethane (AOM)-induced aberrant crypt foci (ACF) in colon
Experiment: Cancer prevention evaluation: AOM-induced colon aberrant crypt foci (ACF) in rats
Type: in vivo
Details: male F344 rats, 4 weeks; for number of formation of ACF compared with the control group: AOM 15 mg/kg s.c. once a week over two weeks
Method: 6-week-old male F344 rats were divided into 3 groups (2 treated groups and 1 control group; each group consisted of 9 rats) and a colon carcinogen azoxymethane (AOM) was injected subcutaneously at the dose of 15 mg/kg body weight once a week over two weeks. From the day before injection of AOM, to the treated groups, coenzyme Q10 (Kaneka Q10, Kaneka Corporation) was fed together with feed at the concentration of 200 or 500 ppm, respectively. 4 weeks later, aberrant crypt foci (ACF), which is a precancerous change in colon cancer, was analyzed. After the rats were sacrificed, the colons (from the cecum to rectum) were enucleated and fixed using a 10% neutral buffered formalin. After the fixation, the colons were washed with a phosphate buffered-saline and stained with a 0.2% methylene blue-containing phosphate buffered-saline. Then, the number and size of ACF were measured using a microscope. […] As observed above, it was made clear that coenzyme Q10 has an effect for inhibiting the initial stage of AOM-induced formation of colon ACF, which is a precancerous change of colon cancer.

## COC1=C(OC)C(=O)C(C/C=C(\C)CC/C=C(\C)CC/C=C(\C)CC/C=C(\C)CC/C=C(\C)CC/C=C(\C)CC/C=C(\C)CC/C=C(\C)CC/C=C(\C)CCC=C(C)C)=C(C)C1=O [coenzyme Q10]
Coenzyme Q10 200 ppm in feed
  number of formation of ACF compared with the control group: 76.6%
Coenzyme Q10 500 ppm in feed, p<0.01
  number of formation of ACF compared with the control group: 68.0%
AOM-induced, coenzyme Q10 200 or 500 ppm in feed
  size difference in ACF between control group and treated groups: not recognized
